Here are results for four compounds from US20030161867A1, “Skin-permeable selective cyclooxygenase-2 inhibitor composition” (priority 2001, published 2003).

The nature of series [1]: Skin permeation (skin flux) in Franz diffusion cell. To be noted: for Normalized skin flux: normalized to a standard run on each skin lot. Format: in vitro ADME, human. The procedure:
Suitable receptor fluids can be selected by one of skill in the art, but presently preferred receptor fluids are a 1% polysorbate 80 solution and a 6% polyethylene glycol (20) oleyl ether (oleth-20) solution. The receptor fluid is maintained at a suitable temperature, preferably a temperature approximating living human skin temperature. A receptor fluid temperature of 32° C. has been found suitable. The membrane is oriented so that its internal surface, i.e., the surface opposite the epidermal surface, is placed in contact with the receptor fluid. Air bubbles are removed from the receptor fluid, which is then allowed to equilibrate for 30 minutes with the membrane. A test sample of a composition is placed in contact with the epidermal surface of the membrane, and left in place for a desired period, for example 24 hours. […] The receptor compartment of the Franz diffusion cell was filled with the receptor fluid and the diffusion cell was maintained at 32° C. The membrane was mounted on the receptor compartment, covered and fastened with a clamp. Air bubbles were removed from the receptor fluid, which was allowed to equilibrate for 30 minutes. A test composition was brought into contact with the membrane. […] Each test was conducted in several replicates.

Series [2] is described as follows: Drug concentration of saturated solutions. Format: physicochemical. The procedure:
Saturated solutions of celecoxib were prepared in the following solvents: 70% aqueous ethanol (EtOH), ethanol, PEG-400 and propylene glycol (PG). The solutions were tested for skin permeation properties as described above, using 250 μl drops of each test solution.
Since different lots of skin were used to determine the skin flux of each compound, a standard was run on each skin lot and the data were normalized.
The solutions were tested for skin permeation properties as described above.

Series [3] in a line: Distribution of drug in epidermis and dermis after Franz cell skin permeation test. Format: in vitro ADME, human. From the text:
As a way of measuring the skin permeation properties of selective COX-2 inhibitory drugs or prodrugs in dermally deliverable pharmaceutical compositions, a Franz diffusion cell was provided utilizing a human cadaver skin membrane and a 1% polysorbate 80 (Tween™ 80) solution as a receptor fluid. Frozen skin was thawed at room temperature and punched with a 20 mm puncher to provide a membrane. The receptor compartment of the Franz diffusion cell was filled with the receptor fluid and the diffusion cell was maintained at 32° C. The membrane was mounted on the receptor compartment, covered and fastened with a clamp. Air bubbles were removed from the receptor fluid, which was allowed to equilibrate for 30 minutes. A test composition was brought into contact with the membrane. The amount of drug which permeated through the membrane in a 24 hour period was determined by HPLC analysis of the receptor fluid. Each test was conducted in several replicates.
Distribution of drug in epidermis and dermis was also determined. Results are shown in Table 6, by comparison with the solution compositions of Examples 1 and 2.

A short description of series [4]: Skin permeation (skin flux) in Franz diffusion cell. The format is in vitro ADME, human. To be noted: saturated aqueous solution, 50° C.
The target of a further series is T1, COX-2 (Homo sapiens, UniProt P35354).
T1 sequence (P35354 18-604): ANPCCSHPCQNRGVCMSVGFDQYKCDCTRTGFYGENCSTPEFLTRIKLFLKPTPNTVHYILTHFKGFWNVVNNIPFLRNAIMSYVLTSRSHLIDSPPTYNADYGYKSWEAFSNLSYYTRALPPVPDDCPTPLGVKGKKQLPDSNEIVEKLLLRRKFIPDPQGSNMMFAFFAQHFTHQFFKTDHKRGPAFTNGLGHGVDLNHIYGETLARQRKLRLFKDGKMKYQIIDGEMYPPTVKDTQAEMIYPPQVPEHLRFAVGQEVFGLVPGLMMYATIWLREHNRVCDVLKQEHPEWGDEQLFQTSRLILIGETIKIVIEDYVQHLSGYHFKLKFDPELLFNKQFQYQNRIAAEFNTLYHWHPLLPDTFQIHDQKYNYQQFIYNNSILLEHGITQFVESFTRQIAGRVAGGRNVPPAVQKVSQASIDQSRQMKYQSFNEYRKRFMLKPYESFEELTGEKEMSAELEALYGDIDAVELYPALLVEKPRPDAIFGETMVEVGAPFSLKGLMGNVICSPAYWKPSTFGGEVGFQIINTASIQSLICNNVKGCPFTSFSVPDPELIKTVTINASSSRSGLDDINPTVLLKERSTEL
As to conditions: in vitro; cited from earlier work.

The target of another series is COX-1 (Homo sapiens, UniProt P23219). To be noted: in vitro; cited from earlier work.
[5] abbreviates: 5% oleyl alcohol and 3% thymol in 70% aqueous ethanol, versus skin flux data in Table 2.
The mark [6] stands for this setting: Celecoxib + parecoxib Na composition: saturated celecoxib in 67% aqueous ethanol containing 5% parecoxib sodium.
Where [7] appears, read: gel, 1% drug (10 mg/ml) in 70% aqueous ethanol with 3% Klucel, 50 mg applied, non-occlusive.
Where [8] appears, read: saturated aqueous solution, 32° C.
The mark [9] stands for this setting: saturated solution in 70% aqueous ethanol containing 5% oleyl alcohol and 3% thymol, 250 μl.
The mark [10] stands for this setting: saturated solution in 70% aqueous ethanol, 250 μl, occlusive, 24 hour period, 32° C.
Setting [11] is: saturated solution in 70% aqueous ethanol, skin donor 3.
The mark [12] stands for this setting: saturated solution in 70% aqueous ethanol, skin donor 4.
Where [13] appears, read: saturated solution in 70% aqueous ethanol.
Where [14] appears, read: saturated solution in PEG-400, 250 μl, 24 hour period.
[15] abbreviates: saturated solution in ethanol (EtOH), 250 μl, 24 hour period.
The mark [16] stands for this setting: saturated solution in propylene glycol (PG), 250 μl, 24 hour period.
Setting [17] is: with 5% parecoxib sodium in 67% aqueous ethanol, versus Table 2 data in absence of parecoxib sodium.
Setting [18] is: gel, 1% drug in 70% aqueous ethanol with 3% Klucel, 50 mg, non-occlusive.
The mark [19] stands for this setting: saturated solution in 70% aqueous ethanol, 250 μl, occlusive.
[20] abbreviates: Valdecoxib + parecoxib Na composition: saturated valdecoxib in 67% aqueous ethanol containing 5% parecoxib sodium.

Several values for one entry are separate records, joined by “and”; a condition that tells them apart may be missing. Identical values can stand only once.

COX-1, sequence (P23219 24-599): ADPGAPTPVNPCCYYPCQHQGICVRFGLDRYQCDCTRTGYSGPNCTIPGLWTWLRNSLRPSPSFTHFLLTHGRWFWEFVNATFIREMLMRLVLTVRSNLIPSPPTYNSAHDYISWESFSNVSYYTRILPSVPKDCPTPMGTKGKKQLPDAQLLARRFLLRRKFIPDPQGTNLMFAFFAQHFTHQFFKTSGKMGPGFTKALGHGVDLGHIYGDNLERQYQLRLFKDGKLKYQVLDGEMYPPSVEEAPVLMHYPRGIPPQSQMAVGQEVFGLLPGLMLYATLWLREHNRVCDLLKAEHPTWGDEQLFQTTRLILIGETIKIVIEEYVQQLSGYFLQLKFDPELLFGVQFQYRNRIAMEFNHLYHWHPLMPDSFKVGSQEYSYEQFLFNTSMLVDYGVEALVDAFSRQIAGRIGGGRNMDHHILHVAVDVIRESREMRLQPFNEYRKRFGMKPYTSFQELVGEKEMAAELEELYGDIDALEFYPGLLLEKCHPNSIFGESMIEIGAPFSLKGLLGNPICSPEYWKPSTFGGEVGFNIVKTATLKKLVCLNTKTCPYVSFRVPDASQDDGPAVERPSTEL

Take `Cc1ccc(-c2cc(C(F)(F)F)nn2-c2ccc(S(N)(=O)=O)cc2)cc1` [celecoxib, 4-[5-(4-methylphenyl)-3-(trifluoromethyl)-1H-pyrazol-1-yl]benzenesulfonamide]: the Enhancement factor in series [1] (setting [5]) is given as 1.4; in series [1] (setting [17]), 11.5. Moreover, the Skin flux in series [1] (setting [6]) was 183 ± 153 μg/cm^2 · day; in series [1] (setting [7]), 3.82 ± 3.36 μg/cm^2 · day; in series [1] (setting [8]), 4.27 ± 0.84 μg/cm^2 · day; in series [1] (setting [9]), 21.7 ± 4.6 μg/cm^2 · day; in series [1] (setting [10]), 15.7 μg/cm^2 · day and 15.7 ± 3.83 μg/cm^2 · day; in series [1] (saturated solution in 70% aqueous ethanol, 250 μl, occlusive, 24 hour period, 32° C., listed as Celecoxib) it was 15.7 ± 3.83 μg/cm^2 · day. The Skin flux in series [1] (saturated solution in 70% aqueous ethanol, skin donor 1) was 15.7 ± 3.8 μg/cm^2 · day; in series [1] (setting [11]), 73.7 ± 11.8 μg/cm^2 · day; in series [1] (setting [12]) it was 31.9 ± 9.6 μg/cm^2 · day; in series [1] (saturated solution in 70% aqueous ethanol, skin donor 6), 50.4 ± 12.7 μg/cm^2 · day; in series [1] (setting [14]), “No skin permeation”; in series [1] (saturated solution in PEG-400, 250 μl, 24 hour period, listed as Celecoxib), “ud”. The Skin flux in series [1] (setting [15]) is recorded as 5.62 ± 1.49 μg/cm^2 · day; in series [1] (setting [16]), “No skin permeation”; in series [1] (saturated solution in propylene glycol (PG), 250 μl, 24 hour period, listed as Celecoxib) it was “ud”; in series [4] it was 23.71 ± 4.42 μg/cm^2 · day. The same compound came in with a Celecoxib permeation in series [1] (saturated celecoxib solution in 70% ethanol, amount in receptor fluid after 15 hours) of 1.406 ± 0.086 μg/cm^2. The compound further registered a Normalized skin flux in series [1] (setting [13]) of 34.9 μg/cm^2 · day. For the same compound, the Concentration in series [2] (saturated aqueous solution) was determined as 0.0005 mg/mL; in series [2] (saturated in 67% aqueous ethanol containing 5% parecoxib sodium), 15.9 mg/mL; in series [2] (setting [13]), 15.2 mg/mL; in series [2] (saturated solution in PEG-400), 297 mg/mL; in series [2] (saturated solution in ethanol (EtOH)), 91.4 mg/mL; in series [2] (saturated solution in propylene glycol (PG)), 33.3 mg/mL. Further, the Drug in dermis came out at 1.22 ± 0.51 µg in series [3] (setting [18]) and 2.50 ± 1.53 µg in series [3] (setting [19]). Further, the Drug in epidermis was determined as 2.36 ± 1.06 µg in series [3] (setting [18]) and 3.92 ± 0.79 µg in series [3] (setting [19]).
As to `CCC(=O)NS(=O)(=O)c1ccc(-c2c(-c3ccccc3)noc2C)cc1` [parecoxib Na], in series [1] (setting [5]), the Enhancement factor was found to be 4.8. Besides, the Skin flux in series [1] (setting [9]) is 1210 ± 58.0^ μg/cm^2 · day; in series [1] (setting [10]), 254 ± 164 μg/cm^2 · day. In series [1] (setting [13]), this compound yielded a Normalized skin flux of 120.0 μg/cm^2 · day. The compound further had a Concentration in series [2] (setting [13]) of 386 mg/mL.
As for `CCC(=O)NS(=O)(=O)c1ccc(-c2c(-c3ccccc3)noc2C)cc1` [parecoxib, N-[[4-(5-methyl-3-phenylisoxazol-4-yl)phenyl]sulfonyl]propanamide], the “inhibitory activity against COX-2” value on COX-2 is “weak in vitro inhibitory activity”. The Skin flux was found to be 74.7 ± 14.7 μg/cm^2 · day in series [1] (setting [6]), 64.1 ± 11.3 μg/cm^2 · day in series [1] (setting [20]), 8.62 ± 1.94 μg/cm^2 · day in series [1] (setting [8]) and 47.16 ± 3.70 μg/cm^2 · day in series [4]. Also, the Concentration in series [2] (saturated aqueous solution) was found to be 0.0508 mg/mL. Besides, at COX-1, the “inhibitory activity against COX-1” value is “weak in vitro inhibitory activity”.
As for `Cc1onc(-c2ccccc2)c1-c1ccc(S(N)(=O)=O)cc1` [valdecoxib, 4-[5-methyl-3-phenylisoxazol-4-yl]benzenesulfonamide], the Enhancement factor is listed as 25 in series [1] (setting [5]) and 8.4 in series [1] (setting [17]). Moreover, the Skin flux in series [1] (setting [20]) was 108 ± 16.7 μg/cm^2 · day; in series [1] (setting [7]), 11.3 ± 6.48 μg/cm^2 · day; in series [1] (setting [8]) it was 7.94 ± 0.89 μg/cm^2 · day; in series [1] (setting [9]) it was 323 ± 21 μg/cm^2 · day; in series [1] (setting [10]), 12.8 μg/cm^2 · day and 12.8 ± 4.96 μg/cm^2 · day; in series [1] (saturated solution in 70% aqueous ethanol, 250 μl, occlusive, 24 hour period, 32° C., listed as Valdecoxib), 12.8 ± 4.96 μg/cm^2 · day. Also, the Skin flux is on record as 12.8 ± 5.0 μg/cm^2 · day in series [1] (saturated solution in 70% aqueous ethanol, skin donor 2); 91.9 ± 15.0 μg/cm^2 · day in series [1] (setting [11]); 58.3 ± 11.0 μg/cm^2 · day in series [1] (setting [12]); “No skin permeation” in series [1] (setting [14]); “ud” in series [1] (saturated solution in PEG-400, 250 μl, 24 hour period, listed as Valdecoxib); 1.44 ± 0.54 μg/cm^2 · day in series [1] (setting [15]). For the same compound, the Skin flux result is on record as “No skin permeation” in series [1] (setting [16]); “ud” in series [1] (saturated solution in propylene glycol (PG), 250 μl, 24 hour period, listed as Valdecoxib); 42.12 ± 7.82 μg/cm^2 · day in series [4]. Further, the Normalized skin flux in series [1] (setting [13]) was 53.4 μg/cm^2 · day. For the same compound, the Drug in dermis result in series [3] (setting [18]) was “ud”; in series [3] (setting [19]), 0.543 ± 0.525 µg. The Drug in epidermis is 1.81 ± 1.87 µg in series [3] (setting [18]) and 9.27 ± 3.84 µg in series [3] (setting [19]). For the same compound, at COX-1, the “inhibitory activity against COX-1” value was “weak inhibitor”.
